Among the data in BindingDB's records for PubMed 40104800 (Jinan University) are IC50 values, retold here.

Molecules are shown by their SMILES.

One may read the IC50 as the concentration that inhibits the measured activity by half. A low value points to greater potency in that assay.

This test concerns the target Eukaryotic elongation factor 2 kinase (mouse). The test can be described thus: Inhibition of eEF2K in mouse HT-22 cells preincubated for 20 mins followed by [33P]-ATP addition measured after 120 mins by radiometric Hotspot kinase assay.

`C=C(c1[nH]c2ccccc2c1CN1C/C(=C/C)[C@@H]2CC(=O)c3[nH]c4ccccc4c3C[C@H]1C2C(=O)OC)[C@H]1CCN(C)C/C1=C\C` (stereo partly specified) returned an IC50 of 136 µM.
